# Biological target: human IDO1 (Homo sapiens, UniProt P14902)
# Assay: Assessment of human IDO-1 inhibitory activity in Hela cells (Interferon-gamma stimulated HeLa cells, Ehrlich reagent, absorbance 490 nm)
# Format: cell-based
# Set-up: endogenous in cells; host or cells: HeLa cells stimulated with interferon-gamma
# Details: Hela Human IDO-1 cellular assay
# Procedure, shortened: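 HeLa cells pre-incubated with compound 1 h at 37 °C, then stimulated with human IFN-γ (10 ng/ml final) or murine IFN-γ (5 ng/ml final) for 18 h. Kynurenine read with Ehrlich reagent at 490 nm after TCA (3%) and 50 °C treatment; IC50 normalized to unstimulated (100%) and IFN-γ-only (0%) wells.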
# human IDO1, sequence (P14902 whole entry): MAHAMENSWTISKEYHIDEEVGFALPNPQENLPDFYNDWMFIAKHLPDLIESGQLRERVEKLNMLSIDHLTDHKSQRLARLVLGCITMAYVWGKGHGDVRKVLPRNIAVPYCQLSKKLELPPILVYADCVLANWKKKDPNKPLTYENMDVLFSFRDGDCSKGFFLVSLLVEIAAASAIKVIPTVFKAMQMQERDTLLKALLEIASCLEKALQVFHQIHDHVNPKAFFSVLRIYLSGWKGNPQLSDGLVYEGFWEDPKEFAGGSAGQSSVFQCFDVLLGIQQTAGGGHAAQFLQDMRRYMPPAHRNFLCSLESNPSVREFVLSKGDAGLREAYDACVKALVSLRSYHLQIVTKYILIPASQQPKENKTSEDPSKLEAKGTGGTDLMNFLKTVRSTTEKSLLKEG
row,IC50 [nM],Structure (SMILES)
1,< 50,"CCOc1ncc(Nc2cc(C(CC)CC(=O)O)ccc2N(CC)C2CCOC2)cn1 (single isomer, unassigned) [Example 945 D1, 3-(3-((2-Ethoxypyrimidin-5-yl)amino)-4-(ethyl(tetrahydrofuran-3-yl)amino)phenyl)pentanoic acid]"
2,< 50,"CCC(CC(=O)O)c1ccc(N(CC)C2CCOC2)c(NC(=O)Nc2ccc(Cl)cc2F)c1 (single isomer, unassigned) [Example 946 D1, 3-(3-(3-(4-Chloro-2-fluorophenyl)ureido)-4-(ethyl(tetrahydrofuran-3-yl)amino)phenyl)pentanoic acid]"
3,< 5,"CCC(CC(=O)O)c1ccc(N(CC)C2CCOC2)c(NC(=O)Nc2ccc(Cl)cc2F)c1 (single isomer, unassigned) [Example 946 D2, 3-(3-(3-(4-Chloro-2-fluorophenyl)ureido)-4-(ethyl(tetrahydrofuran-3-yl)amino)phenyl)pentanoic acid]"
4,< 50,"CCC(CC(=O)O)c1ccc(N2CC(O)(c3ccc(F)cc3)C2)c(Nc2ccc(Cl)cc2)c1 (single isomer, unassigned) [Example 1253 E1, 3-(3-((4-Chlorophenyl)amino)-4-(3-(4-fluorophenyl)-3-hydroxyazetidin-1-yl)phenyl)pentanoic acid]"
5,< 5,"CCC(CC(=O)O)c1ccc(N2CC(O)(c3ccc(F)cc3)C2)c(Nc2ccc(Cl)cc2)c1 (single isomer, unassigned) [Example 1253 E2, 3-(3-((4-Chlorophenyl)amino)-4-(3-(4-fluorophenyl)-3-hydroxyazetidin-1-yl)phenyl)pentanoic acid]"
6,< 50,"CCC(CC(=O)O)c1ccc(N2CC(O)(c3ccc(F)cc3)C2)c(Nc2ccc(C#N)cc2)c1 (single isomer, unassigned) [Example 1254, 3-(3-((4-cyanophenyl)amino)-4-(3-(4-fluorophenyl)-3-hydroxyazetidin-1-yl)phenyl)pentanoic acid]"
7,> 50,"CCOc1ncc(Nc2cc(C(CC)CC(=O)O)ccc2N2CC(O)(c3ccc(F)cc3)C2)cn1 (single isomer, unassigned) [Example 1256, 3-(3-((2-ethoxypyrimidin-5-yl)amino)-4-(3-(4-fluorophenyl)-3-hydroxyazetidin-1-yl)phenyl)pentanoic acid]"
8,< 5,"CCC(CC(=O)O)c1ccc(N(CCOC)C2CCOCC2)c(Nc2ccc(Cl)cc2)c1 (single isomer, unassigned) [Example 1257 E1, 3-(3-((4-Chlorophenyl)amino)-4-((2-methoxyethyl)(tetrahydro-2H-pyran-4-yl)amino)phenyl)pentanoic acid]"
9,< 5,"CCC(CC(=O)O)c1ccc(N(CCOC)C2CCOCC2)c(Nc2ccc(C#N)cc2)c1 (single isomer, unassigned) [Example 1258, 3-(3-((4-cyanophenyl)amino)-4-((2-methoxyethyl)(tetrahydro-2H-pyran-4-yl)amino)phenyl)pentanoic acid]"
10,< 50,"CCC(CC(=O)O)c1ccc(N(CCOC)C2CCOCC2)c(Nc2cnc(OC)nc2)c1 (single isomer, unassigned) [Example 1259, 3-(4-((2-methoxyethyl)(tetrahydro-2H-pyran-4-yl)amino)-3-((2-methoxypyrimidin-5-yl)amino)phenyl)pentanoic acid]"
11,< 50,"CCOc1ncc(Nc2cc(C(CC)CC(=O)O)ccc2N(CCOC)C2CCOCC2)cn1 (single isomer, unassigned) [Example 1260, 3-(3-((2-ethoxypyrimidin-5-yl)amino)-4-((2-methoxyethyl)(tetrahydro-2H-pyran-4-yl)amino)phenyl)pentanoic acid]"
12,> 50,"CCC(CC(=O)O)c1ccc(N(CCOC)C2CCOCC2)c(NC(=O)Nc2ccc(C)cc2)c1 (single isomer, unassigned) [Example 1264 E1, 3-(4-((2-Methoxyethyl)(tetrahydro-2H-pyran-4-yl)amino)-3-(3-(p-tolyl)ureido)phenyl)pentanoic acid]"
13,< 50,"CCC(CC(=O)O)c1ccc(N(CCOC)C2CCOCC2)c(NC(=O)Nc2ccc(Cl)cc2F)c1 (single isomer, unassigned) [Example 1265, 3-(3-(3-(4-chloro-2-fluorophenyl)ureido)-4-((2-methoxyethyl) (tetrahydro-2H-pyran-4-yl)amino)phenyl)pentanoic acid]"
14,< 5,"CCN(c1ccc([C@H](CC(=O)O)C(F)(F)F)cc1NC(=O)Nc1ccc(Cl)cc1F)C1CCOCC1 (single isomer, unassigned) [Example 1267]"
15,> 50,"CCN(c1ccc([C@H](CC(=O)O)C(F)(F)F)cc1NC(=O)Nc1ccc(C#N)cc1)C1CCOCC1 (single isomer, unassigned) [Example 1268]"
16,< 50,"CCN(c1ccc([C@H](CC(=O)O)C(F)(F)F)cc1NC(=O)Nc1ccc(C)cc1)C1CCOCC1 (single isomer, unassigned) [Example 1269]"
17,< 50,"CCN(c1ccc([C@@H](CC(=O)O)C(F)(F)F)cc1NC(=O)Nc1ccc(Cl)cc1F)C1CCOCC1 (single isomer, unassigned) [Example 1270]"
18,> 50,"CCN(c1ccc([C@@H](CC(=O)O)C(F)(F)F)cc1NC(=O)Nc1ccc(C#N)cc1)C1CCOCC1 (single isomer, unassigned) [Example 1271]"
19,< 50,"CCN(c1ccc([C@@H](CC(=O)O)C(F)(F)F)cc1NC(=O)Nc1ccc(C)cc1)C1CCOCC1 (single isomer, unassigned) [Example 1272]"
20,> 50,"CCC1COCCN1c1ccc([C@@H](COC)CC(=O)O)cc1Nc1ccc(C#N)cc1 (single isomer, unassigned) [Example 1281]"
21,> 50,"CCC1COCCN1c1ccc([C@@H](COC)CC(=O)O)cc1Nc1ccc(C#N)c(F)c1 (single isomer, unassigned) [Example 1282]"

row,IC50 [nM],Structure (SMILES)
1,> 50,"CCC1COCCN1c1ccc([C@@H](COC)CC(=O)O)cc1Nc1ccc(C#N)cn1 (single isomer, unassigned) [Example 1283]"
2,> 50,"CCC1COCCN1c1ccc([C@@H](COC)CC(=O)O)cc1Nc1cnc(OC)nc1 (single isomer, unassigned) [Example 1284]"
3,> 50,"CCOc1ncc(Nc2cc([C@@H](COC)CC(=O)O)ccc2N2CCOCC2CC)cn1 (single isomer, unassigned) [Example 1285]"
4,> 50,"CCC1COCCN1c1ccc([C@@H](COC)CC(=O)O)cc1Nc1ccc(Cl)cc1 (single isomer, unassigned) [Example 1286]"
5,> 50,"CCC1COCCN1c1ccc([C@H](COC)CC(=O)O)cc1Nc1ccc(C#N)cc1 (single isomer, unassigned) [Example 1287]"
6,> 50,"CCC1COCCN1c1ccc([C@H](COC)CC(=O)O)cc1Nc1ccc(C#N)c(F)c1 (single isomer, unassigned) [Example 1288]"
7,> 50,"CCC1COCCN1c1ccc([C@H](COC)CC(=O)O)cc1Nc1ccc(C#N)cn1 (single isomer, unassigned) [Example 1289]"
8,> 50,"CCC1COCCN1c1ccc([C@H](COC)CC(=O)O)cc1Nc1cnc(OC)nc1 (single isomer, unassigned) [Example 1290]"
9,> 50,"CCOc1ncc(Nc2cc([C@H](COC)CC(=O)O)ccc2N2CCOCC2CC)cn1 (single isomer, unassigned) [Example 1291]"
10,< 50,"CCC1COCCN1c1ccc([C@H](COC)CC(=O)O)cc1Nc1ccc(Cl)cc1 (single isomer, unassigned) [Example 1292]"
11,> 50,"CCC1COCCN1c1ccc([C@H](COC)CC(=O)O)cc1Nc1ccc(F)cc1 (single isomer, unassigned) [Example 1293]"
12,> 50,"CCC1COCCN1c1ccc([C@H](COC)CC(=O)O)cc1Nc1ccc(F)cn1 (single isomer, unassigned) [Example 1294]"
13,< 50,"CCC1COCCN1c1ccc([C@@H](COC)CC(=O)O)cc1Nc1ccc(C#N)cc1 (single isomer, unassigned) [Example 1295]"
14,< 50,"CCC1COCCN1c1ccc([C@@H](COC)CC(=O)O)cc1Nc1ccc(Cl)cc1 (single isomer, unassigned) [Example 1300]"
15,> 50,"CCC1COCCN1c1ccc([C@@H](COC)CC(=O)O)cc1Nc1ccc(F)cc1 (single isomer, unassigned) [Example 1301]"
16,> 50,"CCC1COCCN1c1ccc([C@@H](COC)CC(=O)O)cc1Nc1ccc(F)cn1 (single isomer, unassigned) [Example 1302]"
17,< 50,"CCC1COCCN1c1ccc([C@H](COC)CC(=O)O)cc1Nc1ccc(C#N)cc1 (single isomer, unassigned) [Example 1303]"
18,< 50,"CCC1COCCN1c1ccc([C@H](COC)CC(=O)O)cc1Nc1ccc(C#N)c(F)c1 (single isomer, unassigned) [Example 1304]"
19,< 50,"CCC1COCCN1c1ccc([C@H](COC)CC(=O)O)cc1Nc1ccc(F)cc1 (single isomer, unassigned) [Example 1309]"
20,> 50,"COCC(CC(=O)O)c1ccc(N2CCOC(C)C2)c(Nc2ccc(C#N)cc2)c1 (single isomer, unassigned) [Example 1312, 3-(3-((4-cyanophenyl)amino)-4-(2-methylmorpholino)phenyl)-4-methoxybutanoic acid]"
21,> 50,"COCC(CC(=O)O)c1ccc(N2CCOC(C)C2)c(NC(=O)Nc2ccc(Cl)cc2F)c1 (single isomer, unassigned) [Example 1314 D1, 3-(3-(3-(4-Chloro-2-fluorophenyl)ureido)-4-(2-methylmorpholino)phenyl)-4-methoxybutanoic acid]"

row,Structure (SMILES),IC50 [nM]
1,"CCC(CC(=O)O)c1ccc(N(CC)C2CCN(Cc3ccccc3)CC2)c(Nc2ccc(C#N)cc2)c1 (single isomer, unassigned) [Example 940, 3-(4-((1-benzyl-piperidin-4-yl)(ethyl)amino)-3-((4-cyano-phenyl)amino)phenyl) pentanoic acid]",< 5

# From patent US9790169B2, “IDO inhibitors” (BRISTOL-MYERS SQUIBB COMPANY, priority 2015, dated 2017)
